Experiments:
[1] = toxicological study in mice; type: in vivo; details: oral, sub-cutaneous, intra-peritoneal and intravenous routes, up to 300 mg/kg/day, daily up to 28 days
rat motor neurons = assay: in vitro model of trophic deprivation of rat motor neurons (survival, calcein fluorescence); type: cell-based; details: 3 days in basal medium, compared with medium supplemented with neurotrophic factors, ratio > 0 = positive effect
Procedure: The spinal cord of E14 rat embryos is dissected and the ventral part is isolated by trituration after trypsination. […] The cells are centrifuged on a density gradient. The motor neurons are enriched in the fraction of the large cells (the least dense). The cells of this fraction are incubated with an anti-p75 antibody, a surface antigen present on the motor neurons. Secondary antibodies coupled with magnetic balls are added and the mixture of cells is passed through a column in a magnet (Arce et al., 1999). Only the motor neurons are retained: their purity is of the order of 90%.
The motor neurons are inoculated at low density in culture wells on a substrate of polyornithine-laminin in a neurobasal medium supplemented according to Raoul et al., 1999, Programmed cell death of embryonic motor neurons triggered through the Fas death receptor. […] Negative controls (absence of trophic factors) and positive controls (in the presence of BDNF (Brain-Derived Neurotrophic Factor) at 1 ng/ml, GDNF (Glial-Derived Neurotrophic Factor) at 1 ng/ml and CNTF (Ciliary Neurotrophic Factor) at 10 ng/ml, marketed by the American company PEPROTECH, Inc. and the Sigma-Aldrich company, are included in each series.
The compounds to be tested are added 60 minutes after the inoculation and the cultures are maintained at 37° C. under 5% CO2 for 3 days.
After 3 days, the survival is evaluated by a fluorescence measurement after incubation of the cells in the presence of calcein which becomes fluorescent in the living cells.
The activity of the compounds to be tested was evaluated according to their capacity to prevent the death of the motor neurons when they are added to the neurobasal medium compared with the survival of the motor neurons in medium supplemented with neurotrophic factors.
This survival rate is expressed by a number, the ratio.

GABAA receptors = assay: electrophysiology in vitro with rat neurons (slices of hippocampus on MEA, sensitive neurons in patch clamp); type: cell-based; details: for effect on the stimulating GABAA transmission (postsynaptic field potentials, CA1): slices of hippocampus, 20 μM bicuculline, 50 μM picrotoxin, 1-10 μM diazepam, 10-1000 nM steroids
Procedure: Electrophysiological experiments were carried out in vitro with rat neurons (slices of hippocampus, neurons sensitive in culture), as follows:
The experiments are carried out with hippocampi removed from rats of the Sprague Dawley strain aged from 10 to 21 days. The animals are sacrificed by decapitation, and their brain is rapidly transferred into ACSF (Artificial Cerebro-Spinal Fluid) without sodium (composition: 2 mM KCl, 1.2 mM NaH2PO4, 2 mM MgCl2, 0.5 mM CaCl2, 26 mM NaHCO3, 11 mM glucose, 250 mM saccharose), maintained at a temperature of 4° C. and carbogen (a 95% O2, 5% CO2 mixture) is bubbled through. The hippocampi are extracted from each cerebral hemisphere then cut up into slices of […] thickness using a “tissue chopper”. The slices are left to rest in ACSF medium (composition: 126 mM NaCl, 2 mM KCl, 1.2 mM NaH2PO4, 2 mM MgCl2, 0.5 mM CaCl2, 26 mM NaHCO3, 11 mM glucose) at ambient temperature, at least one hour before recording. Using a pipette, one slice is then deposited on a multi-electrode recording system (MEA, MultiChannel Systems™, Germany) and positioned so as to cover the […]. In order to avoid any change in position by the perfusion flow, a grid weighted down by a platinum <<U>> is positioned on the slice. The MEA is then rapidly inserted into the recording system and the chamber perfused with ACSF with carbogen bubbled through; the middle of the chamber is connected to earth. The perfused ACSF as well as the MEA are maintained at a temperature of 37° C. One of the 60 electrodes is selected as a stimulation electrode. A biphasic stimulation current with an intensity of 300 μA over 0.1 ms is generated from this electrode at a rate of one stimulation every 30 seconds. The responses produced are seen simultaneously at the level of the 59 other electrodes of the MEA. The axons of the Schaeffer collaterals are stimulated in the CA3. In the CA1 region, 6 to 12 electrodes are selected in order to record the field potentials which correspond to the sum of the variations of the postsynaptic potentials of the neurons situated close to each electrode. The molecules tested are dissolved in the ACSF medium (the final concentration of DMSO is ≦0.1%) and carried over onto the slice by means of the perfusion system.
The sensitive rat neurons are cultured for 1 to 2 days and then recorded with the patch clamp technique as described in De Roo M. et al. (Dehydroepiandrosterone potentiates native ionotropic ATP receptors containing the P2X2 subunit in rat sensory neurones, J Physiol, 2003, 552:59-71).

[2] = test system: striatal neurons expressing truncated mutated huntingtin; assay: protection of striatal neurons from death induced by overexpression of a mutated form of huntingtin; type: cell-based; details: 1 μM in 0.5% DMSO; 7 days; compared with medium supplemented with BDNF
Procedure: Primary cultures of striatal neurons are prepared as described in the literature (Primary striatal neuronal culture, Mao L. et al., Methods Mol. Med., 2003, 79:379-86). […] A second expression vector containing the DNA coding the green fluorescent protein (GFP) also undergoes electroporation and serves as a reporter gene. The DNA of the plasmid coding the huntingtin was prepared by purification with cesium chloride. The plasmid containing the GFP sequence was prepared on Qiagen columns. The integrity of the DNA sequences is verified by sequencing, transfection and western blotting. The cells which survive the electroporation are inoculated at a density of 4000 cells per well of a 96-well plate. The culture takes place in Neurobasal medium (GIBCO) complimented with pyruvate and B-27 (Beckton Dickinson). The cells are maintained in culture for 7 days without changing the medium.
The treatments with the compounds to be tested are carried out just after the inoculation at a final concentration of 1 μM in 0.5% of dimethyl sulphoxide (DMSO). The positive controls are carried out by the addition of BDNF at 5 ng/ml final. The negative controls only receive 0.5% DMSO.
Cell death is evaluated after the 7 days by counting the number of living cells expressing the GFP.
The activity of the compounds to be tested was evaluated by their capacity to prevent the death of the striatal neurons cultured in the neurobasal medium compared with the survival of the striatal neurons in medium supplemented with BDNF (Brain-Derived Neurotrophic Factor).

[3] = test system: motor neurons of the nucleus of the facial nerve; assay: axotomy of the facial nerve in new-born rats, count of motor neurons of the facial nucleus; type: in vivo, rat; details: axotomized new-born rats; dose between 3 and 100 mg/kg according to the administration route; compared with the nerve which is not sectioned
Procedure: An axotomy of the facial nerve is performed on new-born young rats of 2-3 days old. The animals receive the cholest-4-en-3-one oxime 4 hours before the unilateral section of the nerve then daily for 5 days by sub-cutaneous route. Seven days after the section of the nerve, the animals are anaesthetized, then fixed by intra-cardial perfusion of paraformaldehyde. The brain is then removed and placed in paraffin. The histological analysis of compound sections of 7 μm of the nucleus of the facial nerve, stained with cresyl violet, allows the number of motor neurons of the intact side as well as of the side of the nerve which has been sectioned to be counted (Casanovas et al., Prevention by lamotrigine, MK-801 and N omega-nitro-L-arginine methyl ester of motoneuron cell death after neonatal axotomy, Neuroscience, 1996, 71, 313-325).

For `CC(C)CCC[C@@H](C)[C@H]1CC[C@H]2[C@@H]3CCC4=CC(=NO)CC[C@]4(C)[C@H]3CC[C@]12C` [Compound 1, Cholest-4-en-3-one oxime], the toxicity [1] was “did not show significant toxicity”, the “Ratio (survival rate of the motor neurons)” value (rat motor neurons; 5 μM) was 1 and the “blocking of the effect of positive allosteric modulators of the GABAA receptors” value (GABAA receptors; allopregnanolone or tetrahydrodeoxycorticosterone as modulators, dose-dependent, concentrations equivalent to those with neurotrophic effects in vitro) was “capable of blocking”. For the same compound, the “effect on the GABAA receptors, compound alone” value (GABAA receptors; tested alone up to 10 μM, slice of hippocampus or sensitive neurons) was “no effect”, the “Ratio (survival of striatal neurons)” value [2] was 0.3 and the “increase of survival of the motor neurons of the nucleus of the facial nerve” value [3] was “up to 40%”.
In the case of `CC(C)CCC[C@@H](C)[C@H]1CC[C@H]2[C@@H]3CCC4=CC(=NO)C=C[C@]4(C)[C@H]3CC[C@]12C` [Compound 2, 1,4-cholestadien-3-one oxime], the “Ratio (survival rate of the motor neurons)” value (rat motor neurons; 5 μM) is reported as 0.6.
For `CC(C)=CCC[C@@H](C)[C@H]1CC[C@H]2[C@@H]3CCC4=CC(=O)CC[C@]4(C)[C@H]3CC[C@]12C` [Compound 4, Cholest-4,24-dien-3-one], the “Ratio (survival of striatal neurons)” value [2] was 0.2.
For `CC(C)=CCC[C@@H](C)[C@H]1CC[C@H]2[C@@H]3CCC4=CC(=NO)CC[C@]4(C)[C@H]3CC[C@]12C` [Compound 6, 4,24-cholestadien-3-one oxime], the “Ratio (survival rate of the motor neurons)” value (rat motor neurons; 5 μM) was 0.5.
With `CC(C)CC=C[C@@H](C)[C@H]1CC[C@H]2[C@@H]3CCC4=CC(=NO)CC[C@]4(C)[C@H]3CC[C@]12C` [Compound 7, 4,22-cholestadien-3-one oxime] the “Ratio (survival rate of the motor neurons)” value (rat motor neurons; 6 μM) was 0.25.
With `CC[C@H](CC[C@@H](C)[C@H]1CC[C@H]2[C@@H]3CCC4=CC(=NO)CC[C@]4(C)[C@H]3CC[C@]12C)C(C)C` [Compound 8, 4-stigmasta-ene-3-one oxime] the “Ratio (survival rate of the motor neurons)” value (rat motor neurons; 10 μM) was 0.3.
With `CC(C)CCC[C@@H](C)[C@H]1CC[C@H]2[C@@H]3CC[C@]4(O)CC(=O)CC[C@]4(C)[C@H]3CC[C@]12C` [Compound 9, 5-beta-hydroxy-cholestan-3-one] the “Ratio (survival rate of the motor neurons)” value (rat motor neurons; 1 μM) was 0.5 and the “Ratio (survival of striatal neurons)” value [2] was 0.5.
For `CC(C)CCC[C@@H](C)[C@H]1CC[C@H]2[C@@H]3C=C[C@H]4CC(=O)CC[C@]4(C)[C@H]3CC[C@]12C` [Compound 11, 5-alpha-cholest-6-en-3-one], the “Ratio (survival of striatal neurons)” value [2] was 0.3.
With `CC(C)C(C)C=C[C@@H](C)[C@H]1CC[C@H]2[C@@H]3C=CC4=CC(=O)CC[C@]4(C)[C@H]3CC[C@]12C` (stereo partly shown) [Compound 12, 24-methylcholest-4,6,22-trien-3-one] the “Ratio (survival of striatal neurons)” value [2] was 0.3.
For `CC(C)[C@@H](C)C=C[C@@H](C)[C@H]1CC[C@H]2[C@@H]3C=CC4=CC(=NO)CC[C@]4(C)[C@H]3CC[C@]12C` [Compound 15, 4.6, 22-ergosta-trien-3-one oxime], the “Ratio (survival rate of the motor neurons)” value (rat motor neurons; 5 μM) was 0.2.
With `CC(C)CCC[C@@H](C)[C@H]1CC[C@H]2[C@@H]3C=CC4=CC(=NO)C=C[C@]4(C)[C@H]3CC[C@]12C` [Compound 17, 1.4,6-cholesta-trien-3-one oxime] the “Ratio (survival rate of the motor neurons)” value (rat motor neurons; 5 μM) was 0.3.
In the case of `CC(=O)[C@H]1CC[C@H]2[C@@H]3CC[C@H]4C[C@H](O)CC[C@]4(C)[C@H]3CC[C@]12C` [allopregnanolone, 3α-hydroxy-5α-pregnan-20-one], the “effect on chlorine currents produced by isoguvacine” value (GABAA receptors; sensitive neurons, patch-clamp) is reported as “potentialized” and the “effect on the stimulating GABAA transmission (postsynaptic field potentials, CA1)” value (from here on “effect … (postsynaptic field potentials, CA1)”) (GABAA receptors) is reported as “potentialized”.
In the case of `CN1C(=O)CN=C(c2ccccc2)c2cc(Cl)ccc21` [diazepam], the “effect … (postsynaptic field potentials, CA1)” value (GABAA receptors) is reported as “potentialized”.
With `C[C@]12CC[C@@H](O)C[C@@H]1CC[C@@H]1[C@@H]2CC[C@]2(C)[C@@H](C(=O)CO)CC[C@@H]12` [tetrahydrodeoxycorticosterone] the “effect … (postsynaptic field potentials, CA1)” value (GABAA receptors) was “potentialized”.
With picrotoxin the “effect … (postsynaptic field potentials, CA1)” value (GABAA receptors) was “blocked”.

Reference: patent US8354395B2, “Method for providing neuroprotection from spinal muscular atrophy” (Trophos, priority 2003, dated 2013)
